Measured values: patent US20090227555A2, “Novel Pyridine Compounds” (priority 2005, published 2009)
Like-named read-outs stand apart in the source and are kept apart here.

Target: T1, P2Y12 receptor (Homo sapiens, UniProt Q9H244)
T1 construct: expressed in transfected cells; host or cells: CHO cells (membrane preparation)
Assay: Functional inhibition of 2-Me-S-ADP induced P2Y12 signalling (35S-GTPγS, cell membranes from P2Y12 transfected CHO-cells)
Type: biochemical
Description: Functional inhibition of—the P2Y12 receptor can be measured by in vitro assays using cell membranes from P2Y12 transfected CHO-cells. Inhibition of platelet aggregation as a result of P2Y12 antagonism is best measured by ADP-induced aggregation of washed human platelets, activation of the platelet fibrinogen receptor (GPIIb/IIIa), or aggregation in whole blood via residual platelet counting. Detailed methodology is indicated below.
Functional inhibition of 2-Me-S-ADP induced P2Y12 signalling: 5 μg of membranes were diluted in 200 μl of 200 mM NaCl, 1 mM MgCl2, 50 mM HEPES (pH 7.4), 0.01% BSA, 30 μg/ml saponin and 10 μM GDP. To this was added an EC80 concentration of agonist (2-methyl-thio-adenosine diphosphate), the required concentration of test compound and 0.1 μCi ^35S-GTPγS. The reaction was allowed to proceed at 30° C. for 45 min. Samples were then transferred on to GF/B filters using a cell harvester and washed with wash buffer (50 mM Tris (pH 7.4), 5 mM MgCl2, 50 mM NaCl). Filters were then covered with scintilant and counted for the amount of ^35S-GTPγS retained by the filter. Maximum activity was that determined in the presence of the agonist and minimum activity in the absence of the agonist following subtraction of the value determined for non-specific activity.

T1 sequence (Q9H244 whole entry): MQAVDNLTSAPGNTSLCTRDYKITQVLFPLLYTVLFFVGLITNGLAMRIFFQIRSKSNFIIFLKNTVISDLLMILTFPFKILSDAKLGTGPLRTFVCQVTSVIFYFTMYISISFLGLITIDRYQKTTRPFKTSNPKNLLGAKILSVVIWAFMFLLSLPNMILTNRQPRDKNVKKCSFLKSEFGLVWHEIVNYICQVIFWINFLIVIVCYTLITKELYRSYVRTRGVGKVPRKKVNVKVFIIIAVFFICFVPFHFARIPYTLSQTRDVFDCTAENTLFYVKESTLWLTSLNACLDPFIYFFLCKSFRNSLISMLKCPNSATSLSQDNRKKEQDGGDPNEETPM

| IC50 (5 μg membranes, EC80 concentration of agonist 2-methyl-thio-adenosine diphosphate, 35S-GTPγS, 30° C., 45 min, read-out: IC50) [µM] | SMILES | IC50 [µM] |
| --- | --- | --- |
| 0.61 | CCOC(=O)c1cnc(N2CCN(C(=O)NS(=O)(=O)c3ccccc3)CC2)c(Cl)c1 [Example 10, Ethyl 5-chloro-6-(4-{[(phenylsulfonyl)amino]carbonyl}piperazin-1-yl)nicotinate] | – |
| – | CC(C)OC(=O)c1cnc(N2CCN(C(=O)NS(=O)(=O)c3ccc(Cl)s3)CC2)c(Cl)c1 [Example 18, Isopropyl 5-chloro-6-[4-({[(5-chloro-2-thienyl)sulfonyl]amino}carbonyl)piperazin-1-yl]nicotinate] | 0.52 |
